The target in experiment [1] is Nuclear receptor subfamily 5 group A member 2 (Homo sapiens, UniProt O00482). The class given is functional, cell-based.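 Further: HEK293T cells transfected with LRH-1 and a StAR promoter luciferase reporter; potency for inhibitors that lower LRH-1 driven reporter light.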
Experiment [2] in a line: StAR promoter reporter inhibition counter-screen, dose response, counter-screen for LRH-1 inverse agonist project, cell-based, luminescence, luciferase reporter (AID 651969). The class given is functional. Background: The purpose of a counterscreen is to sort out artefacts and off-target activity.
Experiment [3] in a line: inhibitors of intracellular T. cruzi replication, confirmation, NIH3T3 host cells, beta-gal luminescence (AID 2044).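 Further: intracellular parasites grown in NIH/3T3 mouse fibroblasts as host cells; luminescent beta-galactosidase reporter signal from transgenic T. cruzi replicating inside host cells; inhibitors lower the luminescence signal.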 The class given is functional, cell-based.
Experiment [4] is described as follows: cytotoxicity toward NIH3T3 fibroblasts, dose response, counter-screen, cell-based, ATP luminescence, mouse fibroblasts (AID 2010).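 Further: cells exposed to compound for about 90 hours before reading.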 The class given is functional.
In the next experiment the target is Steroidogenic factor 1 (Homo sapiens, UniProt Q13285). The experiment can be described thus: Counterscreen for inverse agonists of the liver receptor homolog-1 (LRH-1; NR5A2): Luminescence-based cell-based high throughput dose response assay to identify inverse agonists of the Steroidogenic Factor 1 Nuclear Receptor (SF1; NR5A1). The class given is functional.

The target of experiment [5] is T1, Fatty acid synthase (Homo sapiens, UniProt P49327). Description: FAS thioesterase domain inhibitors, dose response, biochemical, endpoint fluorescence intensity, uHTS hits (AID 624327).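 Further: fluorescence from hydrolysis of an O-methyl fluorescein acyl ester substrate by the enzyme.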 The class given is functional.
In experiment [6] the target is T1, Fatty acid synthase. The experiment can be described thus: FAS thioesterase domain inhibitors, dose response, biochemical, kinetic fluorescence intensity (AID 624326).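 Further: rate of fluorescence rise from hydrolysis of a fluorogenic O-methyl fluorescein ester substrate.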 The class given is functional.
In the next experiment the target is Cytochrome P450 2C19 (Homo sapiens, UniProt P33261). Description: Cytochrome panel assay with activity outcomes. Panel member name: p450-cyp2c19 Compounds with AC50 equal or less than 10 uM are considered active. The class given is functional. The note with it: read-out: AC50.
In experiment [7] the target is Heat shock protein HSP 90-alpha (Homo sapiens, UniProt P07900). The class given is functional, organism-based.
The next experiment has as its target Cytochrome P450 2D6 (Homo sapiens, UniProt P10635).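 Further: CYP2D6 member of a cytochrome P450 panel assay.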
Experiment [8] concerns the target T2, Long-chain-fatty-acid--AMP ligase FadD28 (Mycobacterium tuberculosis, UniProt P9WQ59).
T2 sequence (P9WQ59 whole entry): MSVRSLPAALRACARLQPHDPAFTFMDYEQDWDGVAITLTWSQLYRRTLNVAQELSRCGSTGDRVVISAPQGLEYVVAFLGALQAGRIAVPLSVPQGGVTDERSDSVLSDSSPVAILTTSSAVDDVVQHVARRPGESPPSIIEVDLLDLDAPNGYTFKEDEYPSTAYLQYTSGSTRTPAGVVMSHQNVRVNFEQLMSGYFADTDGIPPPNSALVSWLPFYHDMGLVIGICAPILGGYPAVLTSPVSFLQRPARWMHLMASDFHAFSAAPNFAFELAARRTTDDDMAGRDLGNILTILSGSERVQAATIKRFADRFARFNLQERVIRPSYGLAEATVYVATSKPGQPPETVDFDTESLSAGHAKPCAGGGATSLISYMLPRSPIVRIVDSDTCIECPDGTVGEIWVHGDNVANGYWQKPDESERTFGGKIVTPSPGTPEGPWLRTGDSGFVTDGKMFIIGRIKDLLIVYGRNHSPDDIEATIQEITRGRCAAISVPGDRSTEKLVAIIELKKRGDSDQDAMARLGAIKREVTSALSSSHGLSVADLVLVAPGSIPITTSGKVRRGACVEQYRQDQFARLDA
Description: Fluorescence polarization aasay to screen for inhibitors that compete for the binding of FadD28 to a bisubstrate Measured in Biochemical System Using Plate Reader - 2147-01_Inhibitor_Dose_CherryPick_Activity. The class given is functional, Mycobacterium tuberculosis H37Rv. For orientation: In fluorescence polarisation assays a small probe gives low polarisation when free and higher when bound to something large.

Experiment [9] concerns the target T3, DNA repair protein RAD52 homolog (Homo sapiens, UniProt P43351).
T3 sequence (P43351 whole entry): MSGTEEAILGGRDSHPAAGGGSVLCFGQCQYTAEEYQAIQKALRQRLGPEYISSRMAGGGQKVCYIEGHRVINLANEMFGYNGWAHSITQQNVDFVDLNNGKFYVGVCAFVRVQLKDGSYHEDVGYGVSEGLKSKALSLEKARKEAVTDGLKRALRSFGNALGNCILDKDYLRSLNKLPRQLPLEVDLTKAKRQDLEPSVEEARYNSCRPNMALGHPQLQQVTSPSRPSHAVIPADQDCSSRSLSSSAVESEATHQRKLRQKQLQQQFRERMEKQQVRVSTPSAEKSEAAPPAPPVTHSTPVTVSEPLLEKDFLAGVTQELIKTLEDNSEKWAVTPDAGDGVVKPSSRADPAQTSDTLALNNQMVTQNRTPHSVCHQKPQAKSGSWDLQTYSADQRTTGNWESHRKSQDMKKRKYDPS
The class given is functional, biochemical.

For experiment [10], the target named is T4, DNA repair and recombination protein RAD54-like (Homo sapiens, UniProt Q92698).
T4 sequence (Q92698 whole entry): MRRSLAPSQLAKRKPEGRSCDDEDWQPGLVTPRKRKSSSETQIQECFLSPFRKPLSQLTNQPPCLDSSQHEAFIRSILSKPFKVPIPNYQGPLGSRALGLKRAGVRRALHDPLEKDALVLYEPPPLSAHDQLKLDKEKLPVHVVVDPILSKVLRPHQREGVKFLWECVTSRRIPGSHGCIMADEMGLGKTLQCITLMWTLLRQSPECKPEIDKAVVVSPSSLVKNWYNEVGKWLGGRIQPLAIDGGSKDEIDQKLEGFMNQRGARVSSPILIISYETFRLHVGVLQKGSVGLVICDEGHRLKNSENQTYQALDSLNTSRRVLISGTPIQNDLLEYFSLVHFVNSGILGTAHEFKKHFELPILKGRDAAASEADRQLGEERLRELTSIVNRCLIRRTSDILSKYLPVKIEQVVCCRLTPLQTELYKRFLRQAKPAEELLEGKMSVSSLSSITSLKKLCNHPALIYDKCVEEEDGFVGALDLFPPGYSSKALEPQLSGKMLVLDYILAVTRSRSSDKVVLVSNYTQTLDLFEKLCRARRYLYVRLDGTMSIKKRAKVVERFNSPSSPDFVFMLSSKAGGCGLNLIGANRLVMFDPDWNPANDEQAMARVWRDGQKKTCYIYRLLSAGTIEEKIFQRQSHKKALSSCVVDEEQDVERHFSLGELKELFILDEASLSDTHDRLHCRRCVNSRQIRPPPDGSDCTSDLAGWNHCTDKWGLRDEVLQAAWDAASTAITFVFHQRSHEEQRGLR
The experiment can be described thus: inhibitors of human RAD54 branch migration, confirmation, biochemical, fluorescence, cherry-picked samples, dose series (AID 651657). The class given is functional.

Experiment [11] can be described thus: cytotoxicity in HEK-293T cells, dose response, cytotoxicity control for TCR NF-kB inhibitor project, luminescence, T-cell screen hits (AID 489026).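 Further: cells exposed to compound about 14 hours before the viability readout.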 The class given is functional, cell-based.
Experiment [12] addresses T5, Type-1 angiotensin II receptor (Homo sapiens, UniProt P30556).
T5 sequence (P30556 whole entry): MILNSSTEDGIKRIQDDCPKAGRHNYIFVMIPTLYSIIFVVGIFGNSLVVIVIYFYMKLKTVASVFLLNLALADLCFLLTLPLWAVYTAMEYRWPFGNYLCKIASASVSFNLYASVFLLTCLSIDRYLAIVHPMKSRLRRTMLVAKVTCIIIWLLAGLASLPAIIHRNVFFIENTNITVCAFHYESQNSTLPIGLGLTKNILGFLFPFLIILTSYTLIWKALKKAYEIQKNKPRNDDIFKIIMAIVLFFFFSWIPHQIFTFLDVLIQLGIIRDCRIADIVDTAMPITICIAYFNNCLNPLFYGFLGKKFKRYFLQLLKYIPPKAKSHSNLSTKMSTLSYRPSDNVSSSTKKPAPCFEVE
The experiment can be described thus: AT1 receptor antagonists, dose response, selectivity assay for APJ receptor antagonist project, cell-based, uHTS hits (AID 463214).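 Further: antagonist potency against angiotensin II stimulated AT1 response.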 The class given is functional.

In the next experiment the target is Beta-galactosidase (Escherichia coli, UniProt Q8VNN2). The experiment can be described thus: PubChem AID 485352. The class given is functional.
In another experiment the test system is Streptococcus. Description: Group A Streptococcus viability loss, dose response, counter-screen for streptokinase expression inhibitor project, luminescence, BacTiterGlo (AID 1915).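 Further: potency for reduction of bacterial viability or growth.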 The class given is functional, organism-based.
The test system of experiment [13] is Streptococcus sp. 'group A'. Description: growth inhibition of control SK(-) GAS strain, dose response, counter-screen for streptokinase expression inhibitor project, luminescence, kanamycin, BacTiterGlo, confirmation (AID 1900). The class given is functional, organism-based.
Another experiment has as its target T6, Streptokinase A (Streptococcus pyogenes serotype M1, UniProt P10520).
T6 sequence (P10520 whole entry): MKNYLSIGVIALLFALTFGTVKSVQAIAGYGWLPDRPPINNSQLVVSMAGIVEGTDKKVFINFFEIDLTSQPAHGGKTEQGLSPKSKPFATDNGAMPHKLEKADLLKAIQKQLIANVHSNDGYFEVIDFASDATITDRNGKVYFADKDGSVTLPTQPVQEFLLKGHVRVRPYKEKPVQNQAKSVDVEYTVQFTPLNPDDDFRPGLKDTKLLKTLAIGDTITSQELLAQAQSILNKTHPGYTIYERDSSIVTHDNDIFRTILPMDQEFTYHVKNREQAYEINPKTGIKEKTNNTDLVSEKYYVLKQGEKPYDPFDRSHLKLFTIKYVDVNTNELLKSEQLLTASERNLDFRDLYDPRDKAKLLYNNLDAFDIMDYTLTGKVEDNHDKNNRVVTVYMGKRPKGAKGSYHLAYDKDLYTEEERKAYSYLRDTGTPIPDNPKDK
The experiment can be described thus: S. pyogenes streptokinase expression inhibitors, potency, dose response, plasminogen activation absorbance, OD405 (AID 1914).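 Further: secreted streptokinase activity via plasminogen activation per viability signal from cell pellet.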 The class given is functional, Streptococcus pyogenes M1 GAS.

A short description of experiment [14]: HEp-2 cell cytotoxicity, dose response, cytotoxicity control for RSV inhibitor project, HTS (AID 2410). The class given is functional. The note with it: human respiratory syncytial virus.
Experiment [15] deals with Dual specificity tyrosine-phosphorylation-regulated kinase 1A (Rattus norvegicus, UniProt Q63470). The class given is biochemical, Homo sapiens.
A short description of experiment [16]: AlphaScreen signal interference compounds, dose response, artefact control for ARNT-TACC3 interaction inhibitor project, biochemical, luminescence, cherry-pick (AID 651705).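 Further: AlphaScreen bead proximity signal that flags compounds interfering with the detection technology; potency reflects signal decrease which marks the compound as an assay artifact.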 The class given is functional. A general note: In Alpha technology, singlet oxygen from a donor bead excites a nearby acceptor bead.

SMILES strings stand for the structures. Activity calls are given as the source filed them.

Chain of Steroidogenic factor 1 (Q13285 whole entry): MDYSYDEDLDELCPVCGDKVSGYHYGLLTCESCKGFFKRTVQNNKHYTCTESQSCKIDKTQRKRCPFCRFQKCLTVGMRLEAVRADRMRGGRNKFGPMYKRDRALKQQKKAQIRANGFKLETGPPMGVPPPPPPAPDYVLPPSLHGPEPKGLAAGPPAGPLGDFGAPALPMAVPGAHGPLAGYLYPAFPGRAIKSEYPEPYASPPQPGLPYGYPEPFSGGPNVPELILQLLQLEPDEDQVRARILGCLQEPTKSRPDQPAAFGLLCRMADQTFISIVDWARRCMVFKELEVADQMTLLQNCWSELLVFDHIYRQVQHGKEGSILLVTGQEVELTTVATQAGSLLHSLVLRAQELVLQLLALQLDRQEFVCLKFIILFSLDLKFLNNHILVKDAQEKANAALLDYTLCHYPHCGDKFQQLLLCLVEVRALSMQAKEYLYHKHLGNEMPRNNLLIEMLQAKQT
T1 sequence (P49327 whole entry, the tested form may be a part): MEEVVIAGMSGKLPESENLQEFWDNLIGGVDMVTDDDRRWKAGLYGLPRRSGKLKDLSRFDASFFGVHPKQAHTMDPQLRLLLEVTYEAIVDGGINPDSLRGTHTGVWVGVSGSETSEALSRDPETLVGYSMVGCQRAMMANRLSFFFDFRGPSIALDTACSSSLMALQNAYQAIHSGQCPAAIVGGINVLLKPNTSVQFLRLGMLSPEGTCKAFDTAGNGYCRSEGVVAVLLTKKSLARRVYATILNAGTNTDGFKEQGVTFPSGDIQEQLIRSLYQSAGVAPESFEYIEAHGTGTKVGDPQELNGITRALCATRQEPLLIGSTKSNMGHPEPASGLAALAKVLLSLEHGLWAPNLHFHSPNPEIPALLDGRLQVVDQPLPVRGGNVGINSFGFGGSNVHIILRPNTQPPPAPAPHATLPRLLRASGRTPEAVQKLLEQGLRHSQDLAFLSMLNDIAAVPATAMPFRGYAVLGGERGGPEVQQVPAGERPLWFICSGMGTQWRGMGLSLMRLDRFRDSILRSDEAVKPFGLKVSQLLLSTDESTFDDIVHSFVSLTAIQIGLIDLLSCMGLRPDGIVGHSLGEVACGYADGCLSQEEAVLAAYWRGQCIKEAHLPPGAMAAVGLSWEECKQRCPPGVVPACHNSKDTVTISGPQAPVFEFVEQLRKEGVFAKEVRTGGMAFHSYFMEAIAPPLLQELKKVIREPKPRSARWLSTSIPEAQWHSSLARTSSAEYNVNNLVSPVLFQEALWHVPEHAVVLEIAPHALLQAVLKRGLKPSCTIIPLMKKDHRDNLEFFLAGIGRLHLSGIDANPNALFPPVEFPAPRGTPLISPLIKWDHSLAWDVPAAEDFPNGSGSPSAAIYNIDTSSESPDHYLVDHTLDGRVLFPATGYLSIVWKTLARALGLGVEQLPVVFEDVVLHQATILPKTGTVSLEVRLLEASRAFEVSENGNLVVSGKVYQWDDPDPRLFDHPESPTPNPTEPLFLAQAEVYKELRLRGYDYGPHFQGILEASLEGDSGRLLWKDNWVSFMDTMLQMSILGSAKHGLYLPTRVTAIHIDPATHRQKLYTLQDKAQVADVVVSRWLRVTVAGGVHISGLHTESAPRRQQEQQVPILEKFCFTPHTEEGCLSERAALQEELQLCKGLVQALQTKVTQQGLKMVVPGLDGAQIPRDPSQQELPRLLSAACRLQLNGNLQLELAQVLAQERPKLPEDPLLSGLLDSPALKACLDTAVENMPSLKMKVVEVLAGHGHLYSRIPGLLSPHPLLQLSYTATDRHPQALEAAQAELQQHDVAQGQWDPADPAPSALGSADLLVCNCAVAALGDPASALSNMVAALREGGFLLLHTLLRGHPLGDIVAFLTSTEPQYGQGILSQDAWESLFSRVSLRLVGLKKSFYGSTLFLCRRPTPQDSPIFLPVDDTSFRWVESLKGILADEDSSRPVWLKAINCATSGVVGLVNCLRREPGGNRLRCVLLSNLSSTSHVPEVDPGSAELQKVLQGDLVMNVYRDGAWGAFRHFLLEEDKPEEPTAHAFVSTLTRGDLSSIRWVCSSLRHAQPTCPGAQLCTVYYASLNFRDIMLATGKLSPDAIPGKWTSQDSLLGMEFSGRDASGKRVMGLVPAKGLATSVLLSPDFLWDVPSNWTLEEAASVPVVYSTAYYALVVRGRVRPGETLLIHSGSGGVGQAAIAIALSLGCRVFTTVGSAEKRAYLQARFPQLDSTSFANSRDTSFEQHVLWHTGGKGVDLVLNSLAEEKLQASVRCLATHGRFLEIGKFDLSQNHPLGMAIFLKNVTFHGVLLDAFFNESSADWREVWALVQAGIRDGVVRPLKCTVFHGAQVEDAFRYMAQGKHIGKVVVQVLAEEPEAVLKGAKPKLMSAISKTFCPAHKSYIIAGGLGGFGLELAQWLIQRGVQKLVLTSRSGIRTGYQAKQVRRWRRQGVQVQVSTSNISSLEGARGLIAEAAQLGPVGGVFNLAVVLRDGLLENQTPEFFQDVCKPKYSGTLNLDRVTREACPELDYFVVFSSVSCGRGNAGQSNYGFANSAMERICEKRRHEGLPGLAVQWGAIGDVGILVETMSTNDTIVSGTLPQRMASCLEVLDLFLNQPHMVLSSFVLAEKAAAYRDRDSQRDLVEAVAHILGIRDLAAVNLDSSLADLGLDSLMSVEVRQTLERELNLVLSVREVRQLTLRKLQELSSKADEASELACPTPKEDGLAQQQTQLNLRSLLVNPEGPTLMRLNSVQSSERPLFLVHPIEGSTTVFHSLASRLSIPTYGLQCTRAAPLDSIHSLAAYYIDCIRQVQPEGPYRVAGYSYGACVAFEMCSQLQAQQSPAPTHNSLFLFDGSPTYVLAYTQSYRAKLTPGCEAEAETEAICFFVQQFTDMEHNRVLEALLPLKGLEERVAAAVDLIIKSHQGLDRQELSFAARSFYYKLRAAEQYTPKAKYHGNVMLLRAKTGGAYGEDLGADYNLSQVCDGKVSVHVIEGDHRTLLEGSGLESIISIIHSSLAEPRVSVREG
Chain of Nuclear receptor subfamily 5 group A member 2 (O00482 whole entry): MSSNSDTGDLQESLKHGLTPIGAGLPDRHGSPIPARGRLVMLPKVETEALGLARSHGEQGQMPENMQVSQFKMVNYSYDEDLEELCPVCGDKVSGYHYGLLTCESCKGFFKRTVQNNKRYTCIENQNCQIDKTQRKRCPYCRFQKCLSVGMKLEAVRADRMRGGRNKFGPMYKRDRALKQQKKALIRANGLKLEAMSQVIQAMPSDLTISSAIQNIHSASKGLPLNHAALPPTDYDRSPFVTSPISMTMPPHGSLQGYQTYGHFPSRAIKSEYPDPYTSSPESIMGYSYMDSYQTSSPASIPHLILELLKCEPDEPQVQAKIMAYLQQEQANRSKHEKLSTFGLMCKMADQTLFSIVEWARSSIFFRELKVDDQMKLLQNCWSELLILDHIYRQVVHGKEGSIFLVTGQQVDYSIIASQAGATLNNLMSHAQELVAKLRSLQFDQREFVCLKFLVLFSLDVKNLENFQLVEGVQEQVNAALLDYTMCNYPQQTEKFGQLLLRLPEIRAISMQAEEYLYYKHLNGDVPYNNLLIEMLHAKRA
Chain of Cytochrome P450 2C19 (P33261 whole entry): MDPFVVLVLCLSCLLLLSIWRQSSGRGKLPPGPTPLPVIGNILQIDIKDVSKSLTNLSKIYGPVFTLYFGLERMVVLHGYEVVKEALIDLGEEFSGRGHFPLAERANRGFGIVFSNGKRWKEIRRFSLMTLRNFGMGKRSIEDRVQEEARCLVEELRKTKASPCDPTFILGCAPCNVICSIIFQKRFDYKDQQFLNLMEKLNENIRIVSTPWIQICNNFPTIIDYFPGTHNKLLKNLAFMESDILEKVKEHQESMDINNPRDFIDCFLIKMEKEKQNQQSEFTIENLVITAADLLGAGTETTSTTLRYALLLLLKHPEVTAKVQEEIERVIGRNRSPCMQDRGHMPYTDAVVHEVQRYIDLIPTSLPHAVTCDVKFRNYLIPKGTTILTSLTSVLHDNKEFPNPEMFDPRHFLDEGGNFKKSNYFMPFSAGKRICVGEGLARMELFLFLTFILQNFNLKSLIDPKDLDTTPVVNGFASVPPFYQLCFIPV
Chain of Beta-galactosidase (Q8VNN2 whole entry): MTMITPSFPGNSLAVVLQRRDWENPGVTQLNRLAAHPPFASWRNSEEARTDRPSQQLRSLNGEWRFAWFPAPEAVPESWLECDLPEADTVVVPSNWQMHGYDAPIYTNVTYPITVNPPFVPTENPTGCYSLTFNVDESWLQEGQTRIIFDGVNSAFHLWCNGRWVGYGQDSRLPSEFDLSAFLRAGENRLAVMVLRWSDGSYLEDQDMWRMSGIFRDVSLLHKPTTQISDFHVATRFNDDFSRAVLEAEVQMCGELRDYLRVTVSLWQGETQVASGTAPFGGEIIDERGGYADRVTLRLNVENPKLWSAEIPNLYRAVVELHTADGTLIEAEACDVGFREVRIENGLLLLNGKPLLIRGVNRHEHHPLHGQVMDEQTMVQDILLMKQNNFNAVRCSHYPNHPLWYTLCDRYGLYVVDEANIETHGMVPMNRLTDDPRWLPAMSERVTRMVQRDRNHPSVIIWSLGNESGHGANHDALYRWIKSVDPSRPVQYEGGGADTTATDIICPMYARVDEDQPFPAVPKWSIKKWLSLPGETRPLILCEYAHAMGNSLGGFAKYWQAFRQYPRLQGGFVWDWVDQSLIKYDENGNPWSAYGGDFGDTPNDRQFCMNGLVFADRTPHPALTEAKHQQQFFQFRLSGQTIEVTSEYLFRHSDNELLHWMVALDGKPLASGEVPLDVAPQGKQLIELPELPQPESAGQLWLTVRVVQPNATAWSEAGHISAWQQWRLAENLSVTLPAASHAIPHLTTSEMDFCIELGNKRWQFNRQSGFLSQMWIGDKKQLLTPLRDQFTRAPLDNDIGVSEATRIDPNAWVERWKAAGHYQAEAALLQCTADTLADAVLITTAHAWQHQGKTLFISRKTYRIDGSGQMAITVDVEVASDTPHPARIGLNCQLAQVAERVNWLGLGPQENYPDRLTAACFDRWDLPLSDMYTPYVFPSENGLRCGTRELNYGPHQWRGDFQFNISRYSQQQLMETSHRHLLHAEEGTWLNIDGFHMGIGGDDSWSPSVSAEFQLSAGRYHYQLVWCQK

For the compound `COc1ccc(NS(=O)(=O)c2ccc(OCC(=O)N3CCN(C)CC3)cc2)cc1Cl`, the IC50 (commonly the concentration that gives 50% inhibition) in experiment [1] was 9.48 µM (active); in [2], 35.9 µM (inactive); at Steroidogenic factor 1 it was 5.92 µM (active). In addition, the 50% effective concentration (EC50) (as a rule, the midpoint of the concentration-response curve) was 0.524 µM (active) in experiment [3] and > 30 µM (not active) in experiment [4].

As for `Cc1cccc2cc(/C=N/Nc3ccc(C(=O)O)cc3)c(Cl)nc12`, the IC50 on Fatty acid synthase [5] is 27.4 µM (inactive); at Fatty acid synthase [6], 18.3 µM (active).

Turning to `Cc1cc(C)c2c(N=NN(C)C)[nH]nc2n1`, the results for the AC50 (on Cytochrome P450 2C19; in [7]; on Cytochrome P450 2D6) were 39.8 µM (inconclusive), 3.96 µM (active) and 14.1 µM (inconclusive), respectively.

As for `O=C(CN1C(=O)S/C(=C\c2cc(Cl)c(O)c(Cl)c2)C1=O)Nc1ccccc1`, the AC50 (in general, the concentration giving half of the maximal activity seen) in [8] was 3.49 µM (active).

In the case of `CCC(C(=O)NC1CCCCC1)n1c(SCc2ccccc2F)nc2ccncc21` (stereo not given), the AC50 in [8] was > 100 µM (inactive).

For the compound `Cc1c(C)n(CCN(C)C)c2ccc(C(=O)OCCN(C)C)cc12`, the figures for the AC50 in [9] and in experiment [10] were 1.31 µM (active) and 8.41 µM (active), respectively.

On to `O=C(N/C(=C\c1ccc(Br)cc1)C(=O)N1CCOCC1)c1ccc([N+](=O)[O-])cc1`, for which the half-inhibitory concentration (IC50) on Fatty acid synthase [5] was 0.262 µM (active); on Fatty acid synthase [6], 0.286 µM (active).

For `CCN(CC)C1CC(=O)N(c2ccc(Br)cc2)C1=O` (stereo not given), in experiment [7], the half-maximal activity concentration (AC50) was 4.04 µM (active).

Take `COc1ccc(OC)c(COC(=O)c2cc([N+](=O)[O-])ccc2N2CCOCC2)c1`: the IC50 was 11.4 µM (active) at Fatty acid synthase [5], 15.4 µM (active) on Fatty acid synthase [6] and > 80 µM (inactive) in experiment [11].

On to `CC(C)c1nc(C#N)c(NN)o1`, for which the IC50 in experiment [12] is 25.3 µM (not active). In addition, the EC50 at Beta-galactosidase is > 40 µM (inactive).

Take `O=C(/C=C/c1cccc(C(F)(F)F)c1)Nc1cccc(C(F)(F)F)c1`: the EC50 is 4.93 µM (active) with Streptococcus, 4.38 µM (active) in experiment [13] and > 50 µM (not active) on Streptokinase A. In experiment [7], the half-maximal activity concentration (AC50) is 4.19 µM (active).

Consider `COc1ccc2c(c1)C(=NNc1ccc(C(=O)O)cc1)c1cc(OC)ccc1-2`, for which the results for the concentration giving a half-maximal response (EC50) (with Streptococcus; in experiment [13]; at Streptokinase A) were 12.4 µM (active), 6.28 µM (active) and > 150 µM (not active), respectively. Moreover, the CC50 (commonly the concentration that lowers cell viability or growth by half) in experiment [14] was 13.7 µM (active). Further, the concentration at half-maximal activity (AC50) in experiment [15] is 0.02 µM (active); in experiment [8], 88 µM (active). Also, the half-inhibitory concentration (IC50) in “cells” was 10.8 µM (active).

For the compound `COc1ccc(NC(=O)CN2C(=O)NC3(CCCC3)C2=O)cc1`, the IC50 (in experiment [1]; in experiment [2]; on Steroidogenic factor 1) was 35.9 µM (inactive) throughout.

For the compound `COc1cc(/C=N/NC(N)=S)ccc1OCC(=O)Nc1ccc(C)cc1`, the IC50 was 35.9 µM (inactive) in experiment [1], 35.9 µM (inactive) in experiment [2] and 8.04 µM (active) at Steroidogenic factor 1.

For the compound `C/C=C/c1ccc([C@@H]2[C@H](CO)N(Cc3ccccn3)[C@H]2CNC(C)=O)cc1`, the AC50 in [16] was 83.2 µM (active).

(Values after ChEMBL document CHEMBL1201862, “PubChem BioAssay data set” (2004).)
